Measurements from patent US20210169690A1, “Self-Retaining Implantable Drug Delivery Device” (GoldenBiotech, LLC, priority 2019, published 2021).

What was measured:
Type in all cases: physicochemical
[1] = In vitro drug release from silicone polymer matrix test samples in PBS pH 7.4 at 37° C., RPHPLC; settings: 10% Travoprost matrix plug, PARYLENE about 0.68 μm, two 18G depot channels
Procedure: To test the controlled release properties of the disclosed drug-loaded silicone polymer matrices, the effects of a coating were examined. In these experiments, test samples were made as described in Example 1 to produce thin-disc-shaped drug-loaded polymer matrix. From this material, test samples were prepared by 1) cutting out rectangular polygons of about 3 mm length, about 1 mm width and about 1 mm height were cut from polymerized drug-loaded material; or 2) cutting out cylindrical plugs of about 3 mm length and having a diameter of about 0.5 mm to about 1 mm. The weight of the test samples were in the range about 0.1 mg to about 4 mg.
Certain of these cut test samples were then coated using one of three procedures. Cut test samples were coated with a polymer like poly(p-xylylene) (PARYLENE) to a thickness of about 0.10 μm to about 0.95 μm using a vapor phase deposition procedure. Similarly, cut test samples were coated a metal like titanium to a thickness of about 0.10 μm to about 0.95 μm using a vapor phase deposition procedure. Alternatively, cut test samples were physically wrapped with a tape like polytetrafluoroethylene tape and sealed using cyanoacrylate adhesive.
The presence of opening in a coated test sample was also examined. In these experiments, coated test samples were punctured to produce opening through the coating layer. From one to four opening were made using the tip of an 18G, 23G, 27G or 31G needle. Two types of opening were produced 1) surface pores which created openings only through the coating layer but left the polymer matrix intact; and 2) depot channels which created a tunnel through the entire coated test sample from one end to the other end.
To examine the drug release properties of a test sample, each sample was placed in 2 mL Eppendorf tube containing 1.5 mL of Phosphate Buffered Saline, pH 7.4 (PBS). These tubes were slowly rocked at 37° C. in an incubator. At given time points the PBS was completely removed from the tube and refilled with fresh PBS. An aliquot of the removed PBS was then analyzed by reversed phase HPLC (RPHPLC) to determine the amount of drug released from the test sample during the incubation period. In these experiments, a 10 μL injection of the test sample aliquot was run on an Agilent 1260 Infinity in a reverse phase isocratic mode using UV detection at 210 nm. The column was a Hypersil GOLD Phenyl column, (Dim. (mm) 250×4.6) and the mobile phase was a 1:1 mixture of acetonitrile to aqueous buffer (comprising HPLC grade water mixed with 5 mM ammonium acetate and 0.02% formic acid). The flow rate was 1.2 mL/min and column temperature was 22° C. Peak detection and quantitation was determined by establishing a calibration curve using known amounts of each drug tested and the amount of drug present in the test sample aliquot interpolated from this calibration curve using ChemStation software.

[2] = Higuchi equation analysis of drug release data
Procedure: In order to ascertain whether the mechanism of drug release was based on diffusion, data obtained from various coated silicone polymer matrices were analyzed using the Higuchi equation. This analysis determined the linearity between the cumulative amount of drug released and the square root of time (SQRT). […] As exemplified FIG. 10, data is plotted as the square root of time taken on the x-axis and the cumulative percentage of drug release on the y-axis.

[3] = Korsmeyer-Peppas analysis of drug release data
Procedure: To confirm the results obtained based on the Higuchi equation analysis, the data above was also analyzed using the Korsmeyer-Peppas plot, which evaluates the mechanism of drug release by plotting the log of percent drug released over the log time in hours. If n equals 0.45, then Fickian diffusion is indicated for a cylinder (0.42 for cylinder of low aspect ratio). […] As exemplified FIG. 11, data is plotted as the log of cumulative percent drug released on the y-axis and the log time in hours on the x-axis.

[4] = Modified Higuchi plot (2A versus Q^2/T)
Procedure: Travoprost and Latanoprost are oily liquids at room temperature whereas Bimatoprost is a solid at room temperature. To determine whether the liquid versus solid phase of these drugs affects their release from the silicone polymer matrix, data was analyzed using an alternative plot based on the Higuchi equation where twice the drug loading value (2A) is plotted on the […] and the average slope of the plot of cumulative drug released squared versus time in hours (Q^2/T) is plotted on the […].

[5] = Chemical stability of prostaglandin analogues in PBS, RPHPLC; settings: PBS at pH 4, 7 and 10; 4° C., 33° C. and 50° C.
Procedure: The chemical stability of prostaglandin analogues was also examined. In these experiments, a prostaglandin analogue was incubated in phospho-buffered saline (PBS) at pH 4, 7 and 10 and at 4° C., 33° C. and 50° C. representing long term storage, eye temperature and accelerate temperature conditions respectively. Analyses were performed by RPHPLC as described in Example 2, noting any hydrolysis products formed. […] This stability is most likely due to the amide linkage in Bimatoprost which is much more hydrolytically stable than the ester linkage in Latanoprost and Travoprost.

[6] = Release from post-loaded section of the drug delivery device (Example 5)
Procedure: A central section of a self-retaining implantable drug delivery device disclosed herein was loaded with Travoprost by cutting a 3 mm section of the device and then placed into 0.200 mL of hexanes for 3 hours. Following this period, the self-retaining implantable drug delivery device was placed immediately into 0.050 mL of a Travoprost stock solution 25 mg/mL in ethanol and allowed to stand overnight. The following day, this section was washed sequentially by dipping into a water bath, followed by a 10% acetonitrile bath. It was dried at 80 C and set to release the following day. The section was allowed to release over a period of 38 days. The loading was determined to be approximately 13 mcg. […] This release profile is predicted by the Higuchi mechanism. This type of loading procedure we term post loading. The loaded section is coated with a poly(p-xylylene) polymer and two tiny holes are place completely through the section. The section is then molded together with the two flanking sections of the stent to form the final product. The release from this modified stent follows a near zero order release in vitro and in vivo in preclinical animal models and clinical studies.

CC(C)OC(=O)CCC/C=C\C[C@@H]1[C@@H](/C=C/[C@@H](O)COc2cccc(C(F)(F)F)c2)[C@H](O)C[C@@H]1O [Travoprost]
Daily Release Rate ([1]; day 1): 3.12 µg/day | Daily Release Rate ([1]; day 5): 2.21 µg/day | Daily Release Rate ([1]; day 13): 1.15 µg/day | Daily Release Rate ([1]; day 22): 1.29 µg/day | Daily Release Rate ([1]; day 26): 1.30 µg/day | Daily Release Rate ([1]; day 35): 1.16 µg/day | Daily Release Rate ([1]; day 43): 1.15 µg/day | Daily Release Rate ([1]; day 54): 1.35 µg/day | Daily Release Rate ([1]; day 63): 1.16 µg/day | Daily Release Rate ([1]; day 70): 1.20 µg/day | Daily Release Rate ([1]; day 83): 0.900 µg/day | Daily Release Rate ([1]; day 90): 0.882 µg/day | Daily Release Rate ([1]; day 97): 0.387 µg/day | Daily Release Rate ([1]; day 105): 0.891 µg/day | Daily Release Rate ([1]; day 111): 0.798 µg/day | Daily Release Rate ([1]; day 162): 0.557 µg/day | Average Linear Regression r^2 Value, Higuchi Equation Analysis ([2]; Drug Loading 2.5%): 0.976 | Average Linear Regression r^2 Value, Higuchi Equation Analysis ([2]; Drug Loading 5%): 0.972 | Average Linear Regression r^2 Value, Higuchi Equation Analysis ([2]; Drug Loading 10%): 0.941 | Average n Values, Korsmeyer-Peppas Analysis ([3]; Drug Loading 2.5%): 0.543± | Average n Values, Korsmeyer-Peppas Analysis ([3]; Drug Loading 5%): 0.507± | Average n Values, Korsmeyer-Peppas Analysis ([3]; Drug Loading 10%): 0.453± | Average n Values, Korsmeyer-Peppas Analysis, Mean ([3]; Mean over drug loadings): 0.50 ± 0.09 | average slope of cumulative drug released squared versus time in hours (Q^2/T) ([4]; Loading (A %) 1.0): 0.071 ± 0.001 | average slope of cumulative drug released squared versus time in hours (Q^2/T) ([4]; Loading (A %) 2.5): 0.388 ± 0.046 | average slope of cumulative drug released squared versus time in hours (Q^2/T) ([4]; Loading (A %) 5.0): 1.097 ± 0.218 | average slope of cumulative drug released squared versus time in hours (Q^2/T) ([4]; Loading (A %) 10): 15.821 ± 4.141 | relationship of Q^2/T to 2A in modified Higuchi plot ([4]; Table 10, FIG. 12 and FIG. 13): curvilinear relationship | chemical stability (hydrolysis products) [5]: excellent stability | loading ([6]; 3 mm device section post loaded from 25 mg/mL Travoprost in ethanol): approximately 13 mcg | release at 38 days ([6]; post-loaded uncoated 3 mm section): 99% | release profile ([6]; post-loaded uncoated 3 mm section, over 38 days): curvilinear/asymptotic profile
